Experimental data as given in patent US20250035641A1, “COMPOSITIONS AND METHODS RELATED TO PROTEIN LABELING” (The Chinese University of Hong Kong, priority 2023, published 2025).

Experiments:
Type in all cases: cell-based
endogenous BRD4 = target: T1, endogenous BRD4 (Homo sapiens, UniProt O60885); assay: IP-WB of endogenous BRD4 in cell line stably expressing fOGT
T1 construct: endogenous BRD4 in cell line stably expressing fOGT; endogenous in cells
From the text: We next pursued the induction of POI O-GlcNAcylation independent of Halotag; this could facilitate the induction of O-GlcNAcylation on endogenous POIs for their functional dissection. […] As OGTAC-4 directly recruit BRD4, we first try to assess its potency on endogenous BRD4 in cell line stably expressing fOGT. […] Then, we overexpressed BRD4 together with fOGT in HEK293T cells to accommodate the readout to fit in IP-WB detection limit. As expected, in the co-expression system, we validated the O-GlcNAcylation inducing effect of OGTAC-4. […] Of note, OGTAC-4 promoted BRD4 O-GlcNAcylation and the formation of a stable ternary complex between BRD4 and fOGT at concentrations as low as 3 nM (FIG. 4C & FIG. 14). […] This may be due to the sub-stoichiometric catalytic activity of OGTAC-4; at lower concentration, OGTAC-4 can still be effective because after enzymatic transfer of O-GlcNAc from fOGT active site to BRD4, the BRD4 would dissociate from the original ternary complex and other unmodified BRD4 could be recruited to fOGT by OGTAC-4. However, OGTAC-1 covalently linked to HTN-BRD4, and AP1867 binds tightly to fOGT. therefore, once HTN-BRD4 dissociated, free OGTAC-1 molecules may form binary complex with fOGT and inhibit other HTN-BRD4 from formation of new ternary complex. […]

[1] = target: T2, fOGT (FKBP12^F36V fused-OGT) (Homo sapiens, UniProt P62942, F37V); assay: Intact cell CETSA (fOGT engagement); settings: HEK-293T, 4 h, HEK293T HTN-BRD4:fOGT=1:0.05
T2 construct: expressed in transfected cells; host or cells: HEK293T
Experimental: For fOGT engagement, we established a cellular thermal shift assay (CETSA). Using same co-expressing system, we treated cells with OGTAC 1-3 for 4 h, and conducted heat challenge to intact cells at a series of temperature to determine the corresponding melting temperature (Tm). […] HEK293T cells (2.5×10^6 cells) were seeded in 10 cm culture dish overnight for attachment. On the next day, cells were transfected with HTN-BRD4:fOGT=1:0.05 plasmid for 24 hours until ˜90% confluence. After treatment with 5 μM compounds or DMSO, cells were collected and washed with PBS. Subsequently, cells were re-suspended in 500 μL PBS and equally divided into 50 μL aliquots. The tubes were subjected to heat challenge at 37-53° C. for 5 mins, followed by cooling on ice. Cells were lysed by three repeated freeze-thaw cycles with liquid nitrogen and water bath. Lastly, cells were centrifuged at 14000 RPM for 15 mins and supernatants were collected for Western Blot analysis.

HTN-CK2α = HTN-CK2α (Homo sapiens, UniProt P68400); assay: Chemoenzymatic labelling and mass-shift assay, HTN-CK2α; parameters: expressed in transfected cells; host or cells: HEK293T (A5, A6); HeLa (A8); settings: 1 μM
From the text: Ck2α is a well-studied OGT substrate.^17,25 Its Ser347 is conservatively O-GlcNAcylated and this modification was reported to affect its kinase activity.^16,17 We first co-expressed HTN-Ck2α and fOGT in HEK293T cells at different ratio and found the basal O-GlcNAcylation level of HTN-Ck2α was higher than what we detected in the case of HTN-BRD4. Therefore, a lower ratio of fOGT expression (1:100) was selected for the assessment of OGTAC potency (FIG. 9). […] The induction of specific O-GlcNAcylation on HTN-Ck2α was further confirmed by mass-shift assay. […] To validate the direct binding to both fOGT and HTN-Ck2α is critical, we exploited AP 1867 and rhodamine ligand, which bind to fOGT and HTN-Ck2α respectively, to co-treat with OGTAC-1.
For each chemoenzymatic labelling reaction. 2×10^5 HEK293T cells were seed to each well of 6 well plate. After cells attached, transfection reagents and plasmids were prepared and added in DMEM. After 24 h transfection, media were replaced by fresh warm complete media with DMSO or probes. […] The supernatant of lysate was then quantified by bicinchoninic acid (BCA) assay and normalized to 2 mg/mL with 1% SDS in buffer. […]

T2 sequence (P62942 whole entry F37V, the tested form may be a part): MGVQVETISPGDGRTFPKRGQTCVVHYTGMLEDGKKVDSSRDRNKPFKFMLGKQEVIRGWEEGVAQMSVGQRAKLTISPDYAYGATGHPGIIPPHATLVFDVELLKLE
Chain of HTN-CK2α (P68400 with tags, fused parts or gaps): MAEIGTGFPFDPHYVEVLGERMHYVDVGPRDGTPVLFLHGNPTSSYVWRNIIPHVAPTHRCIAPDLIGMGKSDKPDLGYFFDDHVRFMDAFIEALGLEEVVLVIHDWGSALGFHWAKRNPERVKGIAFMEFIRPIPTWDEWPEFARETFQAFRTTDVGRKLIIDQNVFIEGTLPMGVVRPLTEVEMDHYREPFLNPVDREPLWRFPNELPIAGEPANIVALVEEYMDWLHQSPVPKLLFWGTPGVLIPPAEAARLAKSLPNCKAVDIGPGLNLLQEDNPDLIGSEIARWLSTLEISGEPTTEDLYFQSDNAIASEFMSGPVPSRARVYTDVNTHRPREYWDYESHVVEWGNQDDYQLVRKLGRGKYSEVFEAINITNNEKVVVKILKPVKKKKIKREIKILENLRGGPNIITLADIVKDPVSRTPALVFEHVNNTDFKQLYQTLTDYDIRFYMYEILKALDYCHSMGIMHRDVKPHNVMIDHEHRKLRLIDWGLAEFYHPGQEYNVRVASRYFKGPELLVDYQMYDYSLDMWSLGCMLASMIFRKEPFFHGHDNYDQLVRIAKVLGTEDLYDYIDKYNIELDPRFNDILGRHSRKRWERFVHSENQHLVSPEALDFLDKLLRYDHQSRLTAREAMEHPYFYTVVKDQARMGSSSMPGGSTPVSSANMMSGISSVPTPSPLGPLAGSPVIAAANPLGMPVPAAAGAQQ
Chain of HTN-CK2α (P62942+O15294 fused P62942:F37V partner): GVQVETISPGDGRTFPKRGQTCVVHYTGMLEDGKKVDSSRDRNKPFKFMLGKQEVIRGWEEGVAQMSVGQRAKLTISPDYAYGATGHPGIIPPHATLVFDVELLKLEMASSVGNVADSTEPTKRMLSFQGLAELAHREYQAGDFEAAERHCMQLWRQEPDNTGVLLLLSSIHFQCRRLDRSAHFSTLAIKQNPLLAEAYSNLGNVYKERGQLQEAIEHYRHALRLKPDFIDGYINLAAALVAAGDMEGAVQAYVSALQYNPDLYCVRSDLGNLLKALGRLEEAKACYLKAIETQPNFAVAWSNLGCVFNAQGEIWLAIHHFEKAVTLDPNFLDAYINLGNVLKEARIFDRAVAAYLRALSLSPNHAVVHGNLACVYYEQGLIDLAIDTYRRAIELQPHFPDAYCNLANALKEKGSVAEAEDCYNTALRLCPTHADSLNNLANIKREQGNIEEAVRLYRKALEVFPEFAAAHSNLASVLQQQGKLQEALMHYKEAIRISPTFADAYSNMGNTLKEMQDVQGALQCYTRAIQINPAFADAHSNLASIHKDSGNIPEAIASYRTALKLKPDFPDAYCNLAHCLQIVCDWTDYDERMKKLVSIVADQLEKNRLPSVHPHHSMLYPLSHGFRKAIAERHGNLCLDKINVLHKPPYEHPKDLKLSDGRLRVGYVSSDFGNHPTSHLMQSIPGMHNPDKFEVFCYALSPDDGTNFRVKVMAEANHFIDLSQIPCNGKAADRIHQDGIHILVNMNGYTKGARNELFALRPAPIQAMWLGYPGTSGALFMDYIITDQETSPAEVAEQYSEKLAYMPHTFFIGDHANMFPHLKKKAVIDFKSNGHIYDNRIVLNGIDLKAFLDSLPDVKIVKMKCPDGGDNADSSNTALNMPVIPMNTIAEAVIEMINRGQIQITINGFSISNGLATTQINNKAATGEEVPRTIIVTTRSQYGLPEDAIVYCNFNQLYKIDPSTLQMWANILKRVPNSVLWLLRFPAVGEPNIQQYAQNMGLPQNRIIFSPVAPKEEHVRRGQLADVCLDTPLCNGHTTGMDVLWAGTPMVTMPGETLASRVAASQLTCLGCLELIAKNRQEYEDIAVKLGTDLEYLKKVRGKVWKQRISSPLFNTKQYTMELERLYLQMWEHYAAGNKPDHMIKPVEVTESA

Row | O-GlcNAc signal on endogenous BRD4 (IP-WB, RL2) (endogenous BRD4) | ΔTm at 5 µM [1] | HTN-CK2α O-GlcNAcylation in mass-shift assay (HTN-CK2α) | SMILES
1 | failed to detect any signal |  |  | CC[C@H](C(=O)N1CCCC[C@H]1C(=O)O[C@H](CCc1ccc(OC)c(OC)c1)c1cccc(OCC(=O)NCCCCCCNC(=O)C[C@@H]2N=C(c3ccc(Cl)cc3)c3c(sc(C)c3C)-n3c(C)nnc32)c1)c1cc(OC)c(OC)c(OC)c1 [OGTAC-4, (R)-1-(3-(2-((6-(2-((S)-4-(4-chlorophenyl)-2,3,9-trimethyl-6H-thieno[3,2-f[]8 1,2,4]triazolo[4,3-a][1,4]diazepin-6-yl)acetamido)hexyl)amino)-2-oxoethoxy)phenyl)-3-(3,4-dimethoxyphenyl)propyl (S)-1-((S)-2-(3,4,5-trimethoxyphenyl)butanoyl)piperidine-2-carboxylate]
2 |  | 1.4 °C | increased HTN-CK2α O-GlcNAcylation | CC[C@H](C(=O)N1CCCC[C@H]1C(=O)O[C@H](CCc1ccc(OC)c(OC)c1)c1cccc(OCC(=O)NCCOCCOCCCCCCCl)c1)c1cc(OC)c(OC)c(OC)c1 [OGTAC-1, (R)-1-(3-(2-((2-(2-((6-chlorohexyl)oxy)ethoxy)ethyl)amino)-2-oxoethoxy)phenyl)-3-(3,4-dimethoxyphenyl)propyl (S)-1-((S)-2-(3,4,5-trimethoxyphenyl)butanoyl) piperidine-2-carboxylate]
